Laboratory results as given in patent US12521393B2, “Cytotoxicity targeting chimeras for CCR2-expressing cells” (GLAXOSMITHKLINE INTELLECTUAL PROPERTY DEVELOPMENT LIMITED, priority 2021, dated 2026).

Legend:
[1] = target: anti-cotinine antibody (SEQ ID NO: 11/12, rabbit variable region with human IgG1 Fc DE mutation); test: SPR binding of anti-cotinine antibody to ARM compounds, Biacore T200, 37° C. (Example 202); details: SPR Biacore T200, 37° C., pH 7.4, antibody SEQ ID NO: 11/12 captured on protein A; Kd in molar
Description: Anti-cotinine antibodies having a heavy chain sequence of SEQ ID NO: 11 and a light chain sequence of SEQ ID NO: 12 (rabbit variable region with human IgG1 Fc domain containing a DE mutation (S239D/1332E)) were captured on one or more flow cells of a protein A sensor chip (Cytiva) using a Biacore T200 while reserving flow cell 1 as a reference. Following capture, a 3000 second wait step was included to reduce drift during compound analysis. ARM compounds of Formula (I) were then injected at 100 μL/min with 200 and 2000 second association and dissociation times. The entire experiment was run at 37° C. with running buffer containing 10 mM HEPES pH 7.4, 150 mM NaCl, 0.005% P20 and 1% DMSO. ARM compounds of Formula (I) were titrated with a top concentration of 200 nM using a 3-fold 5-point dilution series and a corresponding 5-injection buffer cycle was run for blank subtraction. Data were double referenced by subtracting the response of the reference flow cell from that of the antibody-containing flow cell and subsequently subtracting the referenced blank sensorgrams. Following compound analysis, the surface was regenerated using a 30 second injection of pH 1.5 glycine at a flow rate of 30 μL/min after which antibody was re-captured. The experiment was run using Biacore T200 control software and evaluated using Biacore T200 Evaluation software. Curves were fit with a 1:1 kinetic binding model to obtain kon (1/Ms), koff(1/s), Kd (M) determined as koff/kon, and residence time determined as 1/koff (s).
Anti-cotinine antibody was tested for binding to ARMs compounds of Formula (I) of the invention in the above assay in or more experimental runs and the results are shown in Table 5 below. Affinity is reported as a pKd value. The pKd value is the negative log of the Kd value, wherein the Kd value is the dissociation constant measured in molar (M) as noted above. For compounds tested in more than one experimental run, the pKd value is reported as an average

[2] = tested on: endogenous target monocytes in human PBMC; test: PBMC ex vivo monocyte depletion flow cytometry assay (Example 200); type: cell-based; details: with anti-cotinine antibody (SEQ ID NO: 11/12), 18-24 hours, EC50 in molar, read-out: Ex Vivo Depletion Assay pEC50 (converted)
Outline: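 Monocyte depletion is reported as pEC50, averaged or given individually across runs, and read by flow cytometry staining CD45, CD14 and CD4 with a viability dye. Compounds, diluted four-fold over 11 points from 1 mM DMSO stocks, were combined with 30 μg/mL Fc-enhanced anti-cotinine antibody and human PBMC, then incubated 18-24 h at 37° C.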

Row | Compound | pKd of Antibody for ARM Compound of Formula (I) [1] | EC50 [2] [nM]
1 | CC(C)N(C)[C@@H]1CC[C@H](N2CC[C@H](Nc3ncnc4ccc(C(F)(F)F)cc34)C2=O)[C@H](NC(=O)[C@H]2CC[C@@H](NC(=O)CCO[C@H]3CC[C@H](OCCNC(=O)[C@H]4CC(=O)N(C)[C@@H]4c4cccnc4)CC3)CC2)C1 [Example 112, (2S,3S)-N-(2-(((1S,4S)-4-(3-(((1S,4S)-4-(((1R,2S,5R)-5-(Isopropyl(methyl)amino)-2-((S)-2-oxo-3-((6-(trifluoromethyl)quinazolin-4-yl)amino)pyrrolidin-1-yl)cyclohexyl)carbamoyl)cyclohexyl)amino)-3-oxopropoxy)cyclohexyl)oxy)ethyl)-1-methyl-5-oxo-2-(pyridin-3-yl)pyrrolidine-3-carboxamide] | 9.343 | 0.794
2 | CN1C(=O)C[C@H](C(=O)NCC(=O)NCCOCCOCCC(=O)N[C@H]2CC[C@@H](C(=O)N[C@@H]3C[C@H](NC(C)(C)C)CC[C@@H]3N3CC[C@H](Nc4ncnc5ccc(C(F)(F)F)cc45)C3=O)CC2)[C@H]1c1cccnc1 [Example 65, (2S,3S)-N-(2-((2-(2-(3-(((1S,4s)-4-(((1R,2S,5R)-5-(tert-Butylamino)-2-((S)-2-oxo-3-((6-(trifluoromethyl)quinazolin-4-yl)amino)pyrrolidin-1-yl)cyclohexyl)carbamoyl)cyclohexyl)amino)-3-oxopropoxy)ethoxy)ethyl)amino)-2-oxoethyl)-1-methyl-5-oxo-2-(pyridin-3-yl)pyrrolidine-3-carboxamide] | 8.648 | 100000
3 | CC(C)N(C)[C@@H]1CC[C@H](N2CC[C@H](Nc3ncnc4ccc(C(F)(F)F)cc34)C2=O)[C@H](NC(=O)CCCC(=O)N[C@H]2CC[C@H](CNC(=O)CCOCCNC(=O)[C@H]3CC(=O)N(C)[C@@H]3c3cccnc3)CC2)C1 [Example 180, N^1-((1R,2S,5R)-5-(isopropyl(methyl)amino)-2-((S)-2-oxo-3-((6-(trifluoromethyl)quinazolin-4-yl)amino)pyrrolidin-1-yl)cyclohexyl)-N^5-((1S,4R)-4-((3-(2-((2S,3S)-1-methyl-5-oxo-2-(pyridin-3-yl)pyrrolidine-3-carboxamido)ethoxy)propanamido)methyl)cyclohexyl)glutaramide] | 9.249 | 1.26
4 | CC(C)N(C)[C@@H]1CC[C@H](N2CC[C@H](Nc3ncnc4ccc(C(F)(F)F)cc34)C2=O)[C@H](NC(=O)COCCNC(=O)COCCOCCNC(=O)CCNC(=O)[C@H]2CC(=O)N(C)[C@@H]2c2cccnc2)C1 [Example 143, (2S,3S)-N-(1-(((1R,2S,5R)-5-(Isopropyl(methyl)amino)-2-((S)-2-oxo-3-((6-(trifluoromethyl)quinazolin-4-yl)amino)pyrrolidin-1-yl)cyclohexyl)amino)-1,7,16-trioxo-3,9,12-trioxa-6,15-diazaoctadecan-18-yl)-1-methyl-5-oxo-2-(pyridin-3-yl)pyrrolidine-3-carboxamide] | 9.275 | 2.51
5 | CC(C)N(C)[C@@H]1CC[C@H](N2CC[C@H](Nc3ncnc4ccc(C(F)(F)F)cc34)C2=O)[C@H](NC(=O)COCCOCCNC(=O)COCCNC(=O)CCNC(=O)[C@H]2CC(=O)N(C)[C@@H]2c2cccnc2)C1 [Example 74, (2S,3S)-N-(1-(((1R,2S,5R)-5-(isopropyl(methyl)amino)-2-((S)-2-oxo-3-((6-(trifluoromethyl)quinazolin-4-yl)amino)pyrrolidin-1-yl)cyclohexyl)amino)-1,10,16-trioxo-3,6,12-trioxa-9,15-diazaoctadecan-18-yl)-1-methyl-5-oxo-2-(pyridin-3-yl)pyrrolidine-3-carboxamide] | 9.091 | 100000
6 | CC(C)N(C)[C@@H]1CC[C@H](N2CC[C@H](Nc3ncnc4ccc(C(F)(F)F)cc34)C2=O)[C@H](NC(=O)COCCNC(=O)CCOCCNC(=O)COCCNC(=O)[C@H]2CC(=O)N(C)[C@@H]2c2cccnc2)C1 [Example 104, (2S,3S)-N-(18-(((1R,2S,5R)-5-(Isopropyl(methyl)amino)-2-((S)-2-oxo-3-((6-(trifluoromethyl)quinazolin-4-yl)amino)pyrrolidin-1-yl)cyclohexyl)amino)-5,12,18-trioxo-3,9,16-trioxa-6,13-diazaoctadecyl)-1-methyl-5-oxo-2-(pyridin-3-yl)pyrrolidine-3-carboxamide] | 9.051 | 0.631
7 | CC(C)N(C)[C@@H]1CC[C@H](N2CC[C@H](Nc3ncnc4ccc(C(F)(F)F)cc34)C2=O)[C@H](NC(=O)COCCNC(=O)CCOCCOCCNC(=O)CCNC(=O)[C@H]2CC(=O)N(C)[C@@H]2c2cccnc2)C1 [Example 50, (2S,3S)-N-(1-(((1R,2S,5R)-5-(Isopropyl(methyl)amino)-2-((S)-2-oxo-3-((6-(trifluromethyl)quinazolin-4-yl)amino)pyrrolidin-1-yl)cyclohexyl)amino)-1,7,17-trioxo-3,10,13-trioxa-6,16-diazanonadecan-19-yl)-1-methyl-5-oxo-2-(pyridin-3-yl)pyrrolidine-3-carboxamide] | 9.1485 | 0.126
8 | CC(C)N(C)[C@@H]1CC[C@H](N2CC[C@H](Nc3ncnc4ccc(C(F)(F)F)cc34)C2=O)[C@H](NC(=O)COCCNC(=O)COCCNC(=O)CCOCCNC(=O)[C@H]2CC(=O)N(C)[C@@H]2c2cccnc2)C1 [Example 151, (2S,3S)-N-(1-(((1R,2S,5R)-5-(Isopropyl(methyl)amino)-2-((S)-2-oxo-3-((6-(trifluoromethyl)quinazolin-4-yl)amino)pyrrolidin-1-yl)cyclohexyl)amino)-1,7,13-trioxo-3,9,16-trioxa-6,12-diazaoctadecan-18-yl)-1-methyl-5-oxo-2-(pyridin-3-yl)pyrrolidine-3-carboxamide] | 9.0755 | 2
9 | CC(C)N(C)[C@@H]1CC[C@H](N2CC[C@H](Nc3ncnc4ccc(C(F)(F)F)cc34)C2=O)[C@H](NC(=O)C2CCN(C(=O)CCOCCOCCOCCNC(=O)[C@H]3CC(=O)N(C)[C@@H]3c3cccnc3)CC2)C1 [Example 29, N-((1R,2S,5R)-5-(Isopropyl(methyl)amino)-2-((S)-2-oxo-3-((6-(trifluoromethyl)quinazolin-4-yl)amino)pyrrolidin-1-yl)cyclohexyl)-1-(1-((2S,3S)-1-methyl-5-oxo-2-(pyridin-3-yl)pyrrolidin-3-yl)-1-oxo-5,8,11-trioxa-2-azatetradecan-14-oyl)piperidine-4-carboxamide] | 9.3345 | 2.51
10 | CC(C)N(C)[C@@H]1CC[C@H](N2CC[C@H](Nc3ncnc4ccc(C(F)(F)F)cc34)C2=O)[C@H](NC(=O)CCOCCOCCOCCNc2c(NCCNC(=O)[C@H]3CC(=O)N(C)[C@@H]3c3cccnc3)c(=O)c2=O)C1 [Example 168, (2S,3S)-N-(2-((2-((2-(2-(2-(3-(((1R,2S,5R)-5-(Isopropyl(methyl)amino)-2-((S)-2-oxo-3-((6-(trifluoromethyl)quinazolin-4-yl)amino)pyrrolidin-1-yl)cyclohexyl)amino)-3-oxopropoxy)ethoxy)ethoxy)ethyl)amino)-3,4-dioxocyclobut-1-en-1-yl)amino)ethyl)-1-methyl-5-oxo-2-(pyridin-3-yl)pyrrolidine-3-carboxamide] | 9.06 | 1
11 | CC(C)N(C)[C@@H]1CC[C@H](N2CC[C@H](Nc3ncnc4ccc(C(F)(F)F)cc34)C2=O)[C@H](NC(=O)COCCNC(=O)CCNC(=O)CCOCCOCCNC(=O)[C@H]2CC(=O)N(C)[C@@H]2c2cccnc2)C1 [Example 181, (2S,3S)-N-(1-(((1R,2S,5R)-5-(Isopropyl(methyl)amino)-2-((S)-2-oxo-3-((6-(trifluoromethyl)quinazolin-4-yl)amino)pyrrolidin-1-yl)cyclohexyl)amino)-1,7,11-trioxo-3,14,17-trioxa-6,10-diazanonadecan-19-yl)-1-methyl-5-oxo-2-(pyridin-3-yl)pyrrolidine-3-carboxamide] | 9.1645 | 0.398
